Consider 28 compounds from patent publication US8013156B2 (Exelixis, Inc., priority 2003, dated 2011).

This assay has as its target Tie-2 (Homo sapiens, UniProt Q02763). The assay is described as follows: Tie-2 tyrosine kinase activity assay (luciferase/luciferin ATP consumption with pEY substrate, or 33P-ATP incorporation). It counts as biochemical. The conditions noted are these: human enzyme Tie-2. The method, boiled down:
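Values are IC50 categories (A <50 nM to D ≥10,000 nM), with Ki obtainable by fitting rates to a tight-binding model. Assay formats: 33P-ATP phosphate transfer to adsorbed generic substrate counted by scintillation, or luciferase-detected ATP depletion using pEY.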

Tie-2, sequence (Q02763 23-1124): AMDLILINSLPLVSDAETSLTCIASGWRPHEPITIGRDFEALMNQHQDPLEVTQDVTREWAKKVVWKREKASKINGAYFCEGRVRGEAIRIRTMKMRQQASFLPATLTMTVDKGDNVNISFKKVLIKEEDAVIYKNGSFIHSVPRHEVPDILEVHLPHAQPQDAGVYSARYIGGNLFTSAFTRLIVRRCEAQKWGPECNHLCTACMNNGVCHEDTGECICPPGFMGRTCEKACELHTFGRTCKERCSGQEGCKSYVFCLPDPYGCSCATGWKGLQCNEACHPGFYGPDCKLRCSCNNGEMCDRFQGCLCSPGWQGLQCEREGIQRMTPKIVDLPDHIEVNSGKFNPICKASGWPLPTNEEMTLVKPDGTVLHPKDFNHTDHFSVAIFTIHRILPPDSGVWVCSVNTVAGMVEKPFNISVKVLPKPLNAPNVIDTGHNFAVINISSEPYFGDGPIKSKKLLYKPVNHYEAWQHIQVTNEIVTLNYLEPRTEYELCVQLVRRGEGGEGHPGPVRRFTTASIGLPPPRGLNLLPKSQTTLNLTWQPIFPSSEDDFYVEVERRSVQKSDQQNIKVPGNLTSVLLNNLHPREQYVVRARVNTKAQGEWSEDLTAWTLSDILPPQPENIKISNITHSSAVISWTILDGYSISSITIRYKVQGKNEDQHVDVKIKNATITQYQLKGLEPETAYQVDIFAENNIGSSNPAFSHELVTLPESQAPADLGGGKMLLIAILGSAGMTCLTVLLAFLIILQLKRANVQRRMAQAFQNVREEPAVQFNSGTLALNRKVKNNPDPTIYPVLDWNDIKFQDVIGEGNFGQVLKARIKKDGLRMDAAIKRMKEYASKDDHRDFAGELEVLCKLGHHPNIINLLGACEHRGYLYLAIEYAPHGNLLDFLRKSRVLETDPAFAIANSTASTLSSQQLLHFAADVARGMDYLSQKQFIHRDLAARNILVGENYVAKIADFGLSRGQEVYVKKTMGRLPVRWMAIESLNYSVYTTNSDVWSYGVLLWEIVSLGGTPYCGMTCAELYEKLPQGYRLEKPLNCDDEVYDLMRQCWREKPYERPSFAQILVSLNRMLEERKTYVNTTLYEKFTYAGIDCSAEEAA

As to `O=C(CN1CCOCC1)Nc1cc(COc2nsnc2N2CCN(C(=O)Nc3cc(C(F)(F)F)cc(C(F)(F)F)c3)CC2)ccn1` [Example 151, N-[3,5-bis(trifluoromethyl)phenyl]-4-{4-[({2-[(morpholin-4-ylacetyl)amino]pyridin-4-yl}methyl)oxy]-1,2,5-thiadiazol-3-yl}piperazine-1-carboxamide], the half-inhibitory concentration (IC50) was under 50 nM.
With `O=C(CN1CCCCC1)Nc1cc(COc2nsnc2N2CCN(C(=O)Nc3cc(C(F)(F)F)cc(C(F)(F)F)c3)CC2)ccn1` [Example 152, N-[3,5-bis(trifluoromethyl)phenyl]-4-{4-[({2-[(piperidin-1-ylacetyl)amino]pyridin-4-yl}methyl)oxy]-1,2,5-thiadiazol-3-yl}piperazine-1-carboxamide], the concentration for half-maximal inhibition (IC50) was in the range of 50 to 1000 nM.
The figure for `CCOC(=O)Nc1cc(COc2nsnc2N2CCN(C(=O)Nc3cc(C(F)(F)F)cc(C(F)(F)F)c3)CC2)ccn1` [Example 153, ethyl {4-[({4-[4-({[3,5-bis(trifluoromethyl)phenyl]amino}carbonyl)piperazin-1-yl]-1,2,5-thiadiazol-3-yl}oxy)methyl]pyridin-2-yl}carbamate] is under 50 nM.
Consider `O=C(CN1CCCC1)Nc1cc(COc2nsnc2N2CCN(C(=O)Nc3cc(C(F)(F)F)cc(C(F)(F)F)c3)CC2)ccn1` [Example 154, N-[3,5-bis(trifluoromethyl)phenyl]-4-{4-[({2-[(pyrrolidin-1-ylacetyl)amino]pyridin-4-yl}methyl)oxy]-1,2,5-thiadiazol-3-yl}piperazine-1-carboxamide], for which the half-inhibitory concentration (IC50) was under 50 nM.
Turning to `CN1CCN(CC(=O)Nc2cc(COc3nsnc3N3CCN(C(=O)Nc4cc(C(F)(F)F)cc(C(F)(F)F)c4)CC3)ccn2)CC1` [Example 155, N-[3,5-bis(trifluoromethyl)phenyl]-4-(4-{[(2-{[(4-methylpiperazin-1-yl)acetyl]amino}pyridin-4-yl)methyl]oxy}-1,2,5-thiadiazol-3-yl)piperazine-1-carboxamide], the IC50 was under 50 nM.
Take `CCN(CC)CC(=O)Nc1cc(COc2nsnc2N2CCN(C(=O)Nc3cc(C(F)(F)F)cc(C(F)(F)F)c3)CC2)ccn1` [Example 156, N-[3,5-bis(trifluoromethyl)phenyl]-4-{4-[({2-[(N,N-diethylglycyl)amino]pyridin-4-yl}methyl)oxy]-1,2,5-thiadiazol-3-yl}piperazine-1-carboxamide]: the 50% inhibitory concentration (IC50) lay in the range of 50 to 1000 nM.
`CCN1CCC(OC(=O)Nc2cc(COc3nsnc3N3CCN(C(=O)Nc4cc(C(F)(F)F)cc(C(F)(F)F)c4)CC3)ccn2)CC1` [Example 157, 1-ethylpiperidin-4-yl {4-[({4-[4-({[3,5-bis(trifluoromethyl)phenyl]amino}carbonyl)piperazin-1-yl]-1,2,5-thiadiazol-3-yl}oxy)methyl]pyridin-2-yl}carbamate] came in with an IC50 of under 50 nM.
Turning to `CCc1cccc(NC(=O)N2CCN(c3nsnc3OCc3ccnc(N)n3)CC2)c1` [Example 158, 4-(4-{[(2-aminopyrimidin-4-yl)methyl]oxy}-1,2,5-thiadiazol-3-yl)-N-(3-ethylphenyl)piperazine-1-carboxamide], the half-maximal inhibitory concentration (IC50) was in the range of 50 to 1000 nM.
`O=C(Nc1cc(C(F)(F)F)cc(C(F)(F)F)c1)N1CCN(c2nsnc2OCc2ccnc(N3CCOC3=O)c2)CC1` [Example 159, N-[3,5-bis(trifluoromethyl)phenyl]-4-[4-({[2-(2-oxo-1,3-oxazolidin-3-yl)pyridin-4-yl]methyl}oxy)-1,2,5-thiadiazol-3-yl]piperazine-1-carboxamide]: the concentration for half-maximal inhibition (IC50) was at least 10000 nM.
For the compound `CCN(CC)CCOC(=O)Nc1cc(COc2nsnc2N2CCN(C(=O)Nc3cc(C(F)(F)F)cc(C(F)(F)F)c3)CC2)ccn1` [Example 160, 2-(diethylamino)ethyl {4-[({4-[4-({[3,5-bis(trifluoromethyl)phenyl]amino}carbonyl)piperazin-1-yl]-1,2,5-thiadiazol-3-yl}oxy)methyl]pyridin-2-yl}carbamate], the IC50 was under 50 nM.
`CCc1cccc(NC(=O)N2CCN(c3ncccc3OCc3ccnc(NC(=O)OC)c3)CC2)c1` [Example 161, methyl [4-({[2-(4-{[(3-ethylphenyl)amino]carbonyl}piperazin-1-yl)pyridin-3-yl]oxy}methyl)pyridin-2-yl]carbamate]: the IC50 is under 50 nM.
The same measure for `O=C(Nc1nccc(COc2nsnc2N2CCN(C(=O)Nc3cc(C(F)(F)F)cc(C(F)(F)F)c3)CC2)n1)OCCN1CCCC1` [Example 162, 2-pyrrolidin-1-ylethyl {4-[({4-[4-({[3,5-bis(trifluoromethyl)phenyl]amino}carbonyl)piperazin-1-yl]-1,2,5-thiadiazol-3-yl}oxy)methyl]pyrimidin-2-yl}carbamate]: 50 to 1000 nM; for `O=C(Nc1nccc(COc2nsnc2N2CCN(C(=O)Nc3cc(C(F)(F)F)cc(C(F)(F)F)c3)CC2)n1)OCCN1CCCCC1` [Example 163, 2-piperidin-1-ylethyl {4-[({4-[4-({[3,5-bis(trifluoromethyl)phenyl]amino}carbonyl)piperazin-1-yl]-1,2,5-thiadiazol-3-yl}oxy)methyl]pyrimidin-2-yl}carbamate]: 50 to 1000 nM.
The same measure for `COC(=O)Nc1cc(COc2cccnc2N2CCN(C(=O)Nc3cccc(Br)c3)CC2)ccn1` [Example 164, methyl [4-({[2-(4-{[(3-bromophenyl)amino]carbonyl}piperazin-1-yl)pyridin-3-yl]oxy}methyl)pyridin-2-yl]carbamate]: under 50 nM; for `COC(=O)Nc1cc(COc2cccnc2N2CCN(C(=O)Nc3cccc(OC)c3)CC2)ccn1` [Example 165, methyl {4-[({2-[4-({[3-(methyloxy)phenyl]amino}carbonyl)piperazin-1-yl]pyridin-3-yl}oxy)methyl]pyridin-2-yl}carbamate]: 50 to 1000 nM; for `COc1cccc(NC(=O)N2CCN(c3ncccc3OCc3ccnc(N)n3)CC2)c1` [Example 166, 4-(3-{[(2-aminopyrimidin-4-yl)methyl]oxy}pyridin-2-yl)-N-[3-(methyloxy)phenyl]piperazine-1-carboxamide]: 50 to 1000 nM.
Compound `CC(C)c1cccc(NC(=O)N2CCN(c3ncccc3OCc3ccnc(N)n3)CC2)c1` [Example 167, 4-(3-{[(2-aminopyrimidin-4-yl)methyl]oxy}pyridin-2-yl)-N-[3-(1-methylethyl)phenyl]piperazine-1-carboxamide] had an IC50 of under 50 nM.
In turn, `Nc1nccc(COc2cccnc2N2CCN(C(=O)Nc3cccc(OC(F)(F)F)c3)CC2)n1` [Example 168, 4-(3-{[(2-aminopyrimidin-4-yl)methyl]oxy}pyridin-2-yl)-N-{3-[(trifluoromethyl)oxy]phenyl}piperazine-1-carboxamide] yielded an IC50 of under 50 nM.
`Nc1nccc(COc2cccnc2N2CCN(C(=O)Nc3cc(C(F)(F)F)ccc3F)CC2)n1` [Example 169, 4-(3-{[(2-aminopyrimidin-4-yl)methyl]oxy}pyridin-2-yl)-N-[2-fluoro-5-(trifluoromethyl)phenyl]piperazine-1-carboxamide] displayed a half-inhibitory concentration (IC50) of under 50 nM.
In turn, `CCc1cccc(NC(=O)Nc2cc(COc3cccnc3N3CCN(C(=O)Nc4cccc(CC)c4)CC3)ccn2)c1` [Example 170, N-(3-ethylphenyl)-4-[3-({[2-({[(3-ethylphenyl)amino]carbonyl}amino)pyridin-4-yl]methyl}oxy)pyridin-2-yl]piperazine-1-carboxamide] registered an IC50 of under 50 nM.
Regarding `CCc1cccc(NC(=O)N2CCN(c3ncccc3OCc3ccnc(NC(=O)CN4CCN(C)CC4)c3)CC2)c1` [Example 171, N-(3-ethylphenyl)-4-(3-{[(2-{[(4-methylpiperazin-1-yl)acetyl]amino}pyridin-4-yl)methyl]oxy}pyridin-2-yl)piperazine-1-carboxamide], the concentration for half-maximal inhibition (IC50) is under 50 nM.
For the compound `CCc1cccc(NC(=O)N2CCN(c3nsnc3OCc3ccnc(NC(=O)CN4CCN(C)CC4)c3)CC2)c1` [Example 172, N-(3-ethylphenyl)-4-(4-{[(2-{[(4-methylpiperazin-1-yl)acetyl]amino}pyridin-4-yl)methyl]oxy}-1,2,5-thiadiazol-3-yl)piperazine-1-carboxamide], the concentration for half-maximal inhibition (IC50) was under 50 nM.
The compound `CN1CCN(CC(=O)Nc2cc(COc3cccnc3N3CCN(C(=O)Nc4cc(C(F)(F)F)cc(C(F)(F)F)c4)CC3)ccn2)CC1` [Example 173, N-[3,5-bis(trifluoromethyl)phenyl]-4-(3-{[(2-{[(4-methylpiperazin-1-yl)acetyl]amino}pyridin-4-yl)methyl]oxy}pyridin-2-yl)piperazine-1-carboxamide] returned a half-inhibitory concentration (IC50) of under 50 nM.
Compound `Nc1nccc(COc2cccnc2N2CCN(C(=O)Nc3cccc(C(F)(F)F)c3)CC2)n1` [Example 174, 4-(3-{[(2-aminopyrimidin-4-yl)methyl]oxy}pyridin-2-yl)-N-[3-(trifluoromethyl)phenyl]piperazine-1-carboxamide] yielded an IC50 of under 50 nM.
The figure for `CCc1cc(NC(=O)N2CCN(c3ncccc3OCc3ccnc(N)n3)CC2)ccc1F` [Example 176, 4-(3-{[(2-aminopyrimidin-4-yl)methyl]oxy}pyridin-2-yl)-N-(3-ethyl-4-fluorophenyl)piperazine-1-carboxamide] is under 50 nM.
Regarding `Nc1nccc(COc2cccnc2N2CCN(CC(=O)Nc3cc(C(F)(F)F)cc(C(F)(F)F)c3)CC2)n1` [Example 177, 2-[4-(3-{[(2-aminopyrimidin-4-yl)methyl]oxy}pyridin-2-yl)piperazin-1-yl]-N-[3,5-bis(trifluoromethyl)phenyl]acetamide], the IC50 was in the range of 1000 to 10000 nM.
For the compound `Nc1nccc(COc2cccnc2N2CCN(C(=O)Nc3ccccc3)CC2)n1` [Example 178, 4-(3-{[(2-aminopyrimidin-4-yl)methyl]oxy}pyridin-2-yl)-N-phenylpiperazine-1-carboxamide], the IC50 fell in the range of 1000 to 10000 nM.
`CCc1cc(Cl)cc(NC(=O)N2CCN(c3ncccc3OCc3ccnc(N)n3)CC2)c1` [Example 179, 4-(3-{[(2-aminopyrimidin-4-yl)methyl]oxy}pyridin-2-yl)-N-(3-chloro-5-ethylphenyl)piperazine-1-carboxamide]: the IC50 was under 50 nM.
